From patent US9840583B2, “Fluorescent polymers and applications thereof” (Board of Regents, The University of Texas System, priority 2013, dated 2017)

Assay: Photostability under continuous UV excitation
Type: physicochemical
Details: continuous UV excitation for 3 h
Procedure: The photostability of ABPLP micelles was also investigated and compared to the organic fluorescent dye rhodamine-B. The fluorescence intensity of the ABPLP micelle solution decreased by only 1 percent of the initial intensity after continuous UV excitation for 3 h, indicating excellent photostability. In contrast, rhodamine-B lost almost 10 percent of initial fluorescence intensity within the same experimental period.

## CCN(CC)c1ccc2c(-c3ccccc3C(=O)O)c3ccc(=[N+](CC)CC)cc-3oc2c1.[Cl-] [rhodamine-B]
  Loss of initial fluorescence intensity: ~10%
